# Laboratory results as given in patent US20240218022A1, “ANTI-VISTA MACROCYCLIC PEPTIDES AND COMPOSITIONS” (BRISTOL-MYERS SQUIBB COMPANY, priority 2022, published 2024).
# pIC50: −log10 of the molar value. Positions of bridges follow the written chain, without caps; N, C: chain ends. Non-standard residues stand in square brackets, D forms with d. Residues, ends and D or L forms follow the SMILES beside them. ξ: configuration not given here. *: point of attachment. Phe(4-COOH) = N[C@@H](Cc1ccc(C(=O)O)cc1)C(=O)O; Phe(2,4-F2) = N[C@@H](Cc1ccc(F)cc1F)C(=O)O; Phe(3-Br) = N[C@@H](Cc1cccc(Br)c1)C(=O)O; Phe(3-Me) = Cc1cccc(C[C@H](N)C(=O)O)c1; 2Nal = N[C@@H](Cc1ccc2ccccc2c1)C(=O)O; Gly(cPent) = N[C@H](C(=O)O)C1CCCC1; Tic = O=C(O)[C@@H]1Cc2ccccc2CN1; Aad = N[C@@H](CCCC(=O)O)C(=O)O; Cit = NC(=O)NCCC[C@H](N)C(=O)O; Gly(cPr) = N[C@H](C(=O)O)C1CC1; Ahp(2) = CCCCC[C@H](N)C(=O)O; NMeNle = CCCC[C@H](NC)C(=O)O; Tle = CC(C)(C)[C@H](N)C(=O)O; Pip = O=C(O)[C@@H]1CCCCN1; Carboxymethyl = O=C(O)C*; NHexGly = CCCCCCNCC(=O)O; NMeA = CN[C@@H](C)C(=O)O; Nle = CCCC[C@H](N)C(=O)O; ξS = NC(CO)C(=O)O
# Target: T1, mouse VISTA (mVISTA) (Mus musculus, UniProt Q9D659)
# T1 construct: expressed in transfected cells; host or cells: Human embryonic kidney 293T cells
# T1 sequence (Q9D659 33-308): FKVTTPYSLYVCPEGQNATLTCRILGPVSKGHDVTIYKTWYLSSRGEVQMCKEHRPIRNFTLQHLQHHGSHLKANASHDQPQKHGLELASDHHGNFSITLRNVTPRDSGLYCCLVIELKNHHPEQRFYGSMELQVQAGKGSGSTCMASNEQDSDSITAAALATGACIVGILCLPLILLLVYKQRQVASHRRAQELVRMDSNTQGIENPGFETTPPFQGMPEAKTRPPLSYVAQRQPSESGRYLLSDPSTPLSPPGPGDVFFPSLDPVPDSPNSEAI
# Experiment: Cell-Based Binding High-Content Assay For mVISTA (HC CBA mVISTA)
# Conditions: read-out: HC CBA mVISTA IC50
# Method in brief: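 mVISTA-293T, 4,000 cells/well; cpd ± washout step; biotin-peptide 2 nM final, 30 min RT; SA-Alexa 647 30 min; formaldehyde/Hoechst fix; HCS imaging; 4PL IC50.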
row,SMILES,pIC50
1,CCCCCCN1CC(=O)N[C@@H](Cc2ccc(O)cc2)C(=O)N[C@@H](CCCC)C(=O)N[C@@H](CC(N)=O)C(=O)N[C@@H](CCCNC(=N)N)C(=O)N(C)[C@@H](CCCC)C(=O)N[C@@H](CCCCC)C(=O)N(C)[C@@H](C)C(=O)N[C@@H](C(C)C)C(=O)N[C@@H](CO)C(=O)N[C@H](C(=O)NCC(N)=O)CSCC(=O)N[C@@H](Cc2ccccc2)C(=O)N[C@@H](Cc2c[nH]c3ccccc23)C(=O)N[C@@H](CC(=O)O)C1=O [compound 1143] ({CH2CO}-FWD[NHexGly]Y[Nle]NR[NMeNle][Ahp(2)][NMeA]VSCG-NH2; thioether N-14),7.75
2,CCCCCCN1CC(=O)N[C@@H](Cc2ccc(O)cc2)C(=O)N[C@@H](CCCC)C(=O)N[C@@H](CC(N)=O)C(=O)N[C@@H](CCCNC(N)=O)C(=O)N(C)[C@@H](CCCC)C(=O)N[C@@H](CCCCC)C(=O)N(C)[C@@H](C)C(=O)N[C@@H](C(C)C)C(=O)N[C@@H](CO)C(=O)N[C@H](C(=O)NCC(N)=O)CSCC(=O)N[C@@H](Cc2ccccc2)C(=O)N[C@@H](Cc2c[nH]c3ccccc23)C(=O)N[C@@H](CC(=O)O)C1=O [compound 1144] ({CH2CO}-FWD[NHexGly]Y[Nle]N[Cit][NMeNle][Ahp(2)][NMeA]VSCG-NH2; thioether N-14),7.80
3,CCCCCCN1CC(=O)N[C@@H](Cc2ccc(O)cc2)C(=O)N[C@@H](CCCC)C(=O)N[C@@H](CC(N)=O)C(=O)N[C@@H](CCCNC(=N)N)C(=O)N(C)[C@@H](CCCC)C(=O)N[C@@H](CCCCC)C(=O)N2CCCC[C@H]2C(=O)N[C@@H](C(C)C)C(=O)N[C@@H](CO)C(=O)N[C@H](C(=O)NCC(N)=O)CSCC(=O)N[C@@H](Cc2ccccc2)C(=O)N[C@@H](Cc2c[nH]c3ccccc23)C(=O)N[C@@H](CC(=O)O)C1=O [compound 1145] ({CH2CO}-FWD[NHexGly]Y[Nle]NR[NMeNle][Ahp(2)][Pip]VSCG-NH2; thioether N-14),7.54
4,CCCCCCN1CC(=O)N[C@@H](Cc2ccc(O)cc2)C(=O)N[C@@H](CCCC)C(=O)N[C@@H](CC(N)=O)C(=O)N[C@@H](CCCNC(N)=O)C(=O)N(C)[C@@H](CCCC)C(=O)N[C@@H](CCCCC)C(=O)N2CCCC[C@H]2C(=O)N[C@@H](C(C)C)C(=O)N[C@@H](CO)C(=O)N[C@H](C(=O)NCC(N)=O)CSCC(=O)N[C@@H](Cc2ccccc2)C(=O)N[C@@H](Cc2c[nH]c3ccccc23)C(=O)N[C@@H](CC(=O)O)C1=O [compound 1146] ({CH2CO}-FWD[NHexGly]Y[Nle]N[Cit][NMeNle][Ahp(2)][Pip]VSCG-NH2; thioether N-14),7.66
5,CCCCCCN1CC(=O)N[C@@H](Cc2ccc(O)cc2)C(=O)N[C@@H](CCCCC)C(=O)NCC(=O)N[C@@H](CCCNC(=N)N)C(=O)N[C@@H](CC(C)C)C(=O)N[C@@H](CCCCC)C(=O)N2CCCC[C@H]2C(=O)N[C@@H](C(C)C)C(=O)N[C@@H](CO)C(=O)N[C@H](C(=O)NCC(N)=O)CSCC(=O)N[C@@H](Cc2ccccc2)C(=O)N[C@@H](Cc2ccc(O)cc2)C(=O)N[C@@H](CC(=O)O)C1=O [compound 1155] ({CH2CO}-FYD[NHexGly]Y[Ahp(2)]GRL[Ahp(2)][Pip]VSCG-NH2; thioether N-14),7.62
6,CCCCCCN1CC(=O)N[C@@H](Cc2ccc(O)cc2)C(=O)N[C@@H](CC(C)C)C(=O)NCC(=O)N[C@@H](CCCNC(=N)N)C(=O)N2Cc3ccccc3C[C@H]2C(=O)N[C@@H](CCCCC)C(=O)N2CCC[C@H]2C(=O)N[C@@H](C(C)C)C(=O)N[C@@H](CO)C(=O)N[C@H](C(=O)NCC(N)=O)CSCC(=O)N[C@@H](Cc2ccccc2)C(=O)N[C@@H](Cc2ccc(O)cc2)C(=O)N[C@@H](CC(=O)O)C1=O [compound 1158] ({CH2CO}-FYD[NHexGly]YLGR[Tic][Ahp(2)]PVSCG-NH2; thioether N-14),7.95
7,CCCCCCN1CC(=O)N[C@@H](Cc2ccc(O)cc2)C(=O)N[C@@H](Cc2ccc(C(=O)O)cc2)C(=O)N[C@@H](CC(N)=O)C(=O)N[C@@H](CCCNC(=N)N)C(=O)N(C)[C@@H](CCCC)C(=O)N[C@@H](CCCCC)C(=O)N2CCC[C@H]2C(=O)N[C@@H](C(C)(C)C)C(=O)N[C@@H](CC(=O)O)C(=O)N[C@H](C(N)=O)CSCC(=O)N[C@@H](Cc2ccccc2)C(=O)N[C@@H](Cc2c[nH]c3ccccc23)C(=O)N[C@@H](CC(=O)O)C1=O [compound 1167] ({CH2CO}-FWD[NHexGly]Y[Phe(4-COOH)]NR[NMeNle][Ahp(2)]P[Tle]DC-NH2; thioether N-14),7.41
8,CCCCCCN1CC(=O)N[C@@H](Cc2ccc(O)cc2)C(=O)N[C@@H](Cc2ccc(OCC(=O)O)cc2)C(=O)N[C@@H](CC(N)=O)C(=O)N[C@@H](CCCNC(=N)N)C(=O)N(C)[C@@H](CCCC)C(=O)N[C@@H](CCCCC)C(=O)N2CCC[C@H]2C(=O)N[C@@H](C(C)(C)C)C(=O)N[C@@H](CC(=O)O)C(=O)N[C@H](C(N)=O)CSCC(=O)N[C@@H](Cc2ccccc2)C(=O)N[C@@H](Cc2c[nH]c3ccccc23)C(=O)N[C@@H](CC(=O)O)C1=O [compound 1168] ({CH2CO}-FWD[NHexGly]YY(Carboxymethyl)NR[NMeNle][Ahp(2)]P[Tle]DC-NH2; thioether N-14),7.58
9,CCCCCCN1CC(=O)N[C@@H](Cc2ccc(O)cc2)C(=O)N[C@@H](CCCC(=O)O)C(=O)N[C@@H](CC(N)=O)C(=O)N[C@@H](CCCNC(=N)N)C(=O)N(C)[C@@H](CCCC)C(=O)N[C@@H](CCCCC)C(=O)N2CCC[C@H]2C(=O)N[C@@H](C(C)(C)C)C(=O)N[C@@H](CC(=O)O)C(=O)N[C@H](C(N)=O)CSCC(=O)N[C@@H](Cc2ccccc2)C(=O)N[C@@H](Cc2c[nH]c3ccccc23)C(=O)N[C@@H](CC(=O)O)C1=O [compound 1169] ({CH2CO}-FWD[NHexGly]Y[Aad]NR[NMeNle][Ahp(2)]P[Tle]DC-NH2; thioether N-14),7.42
10,CCCCCCN1CC(=O)N[C@@H](Cc2ccc(O)cc2)C(=O)N[C@@H](CCCC)C(=O)N[C@@H](CC(N)=O)C(=O)N[C@@H](CCCNC(=N)N)C(=O)N[C@@H](CC(C)C)C(=O)N[C@@H](C2CCCC2)C(=O)N2CCC[C@H]2C(=O)N[C@@H](C(C)C)C(=O)N[C@@H](CC(=O)O)C(=O)N[C@H](C(=O)NCC(=O)O)CSCC(=O)N[C@@H](Cc2ccc3ccccc3c2)C(=O)N[C@@H](Cc2c[nH]c3ccccc23)C(=O)N[C@@H](CC(=O)O)C1=O [compound 1181] ({CH2CO}-[2Nal]WD[NHexGly]Y[Nle]NRL[Gly(cPent)]PVDCG-OH; thioether N-14),7.80
11,CCCCCCN1CC(=O)N[C@@H](Cc2ccc(O)cc2)C(=O)N[C@@H](CCCC)C(=O)N[C@@H](CC(N)=O)C(=O)N[C@@H](CCCNC(=N)N)C(=O)N[C@@H](CC(C)C)C(=O)N[C@@H](C2CC2)C(=O)N2CCC[C@H]2C(=O)N[C@@H](C(C)C)C(=O)N[C@@H](CC(=O)O)C(=O)N[C@H](C(=O)NCC(=O)O)CSCC(=O)N[C@@H](Cc2ccc3ccccc3c2)C(=O)N[C@@H](Cc2c[nH]c3ccccc23)C(=O)N[C@@H](CC(=O)O)C1=O [compound 1182] ({CH2CO}-[2Nal]WD[NHexGly]Y[Nle]NRL[Gly(cPr)]PVDCG-OH; thioether N-14),7.63
12,CCCCCCN1CC(=O)N[C@@H](Cc2ccc(O)cc2)C(=O)N[C@@H](CCCC)C(=O)N[C@@H](CC(N)=O)C(=O)N[C@@H](CCCNC(=N)N)C(=O)N(C)[C@@H](CCCC)C(=O)N[C@@H](CCCCC)C(=O)N2CCC[C@H]2C(=O)N[C@@H](C(C)C)C(=O)N[C@@H](CC(=O)O)C(=O)N[C@H](C(=O)NCC(=O)O)CSCC(=O)N[C@@H](Cc2ccc3ccccc3c2)C(=O)N[C@@H](Cc2cccc(C)c2)C(=O)N[C@@H](CC(=O)O)C1=O [compound 1200] ({CH2CO}-[2Nal][Phe(3-Me)]D[NHexGly]Y[Nle]NR[NMeNle][Ahp(2)]PVDCG-OH; thioether N-14),7.35
13,"CCCCCCN1CC(=O)N[C@@H](Cc2ccc(O)cc2)C(=O)N[C@@H](CCCCC)C(=O)N[C@@H](CC(N)=O)C(=O)N[C@@H](CCCNC(=N)N)C(=O)N(C)[C@@H](CCCC)C(=O)N[C@@H](CCCCC)C(=O)N2CCC[C@H]2C(=O)N[C@@H](C(C)C)C(=O)N[C@@H](CC(=O)O)C(=O)N[C@H](C(=O)NCC(=O)O)CSCC(=O)N[C@@H](Cc2ccc3ccccc3c2)C(=O)N[C@@H](Cc2ccc(F)cc2F)C(=O)N[C@@H](CC(=O)O)C1=O [compound 1201] ({CH2CO}-[2Nal][Phe(2,4-F2)]D[NHexGly]Y[Ahp(2)]NR[NMeNle][Ahp(2)]PVDCG-OH; thioether N-14)",7.92
14,"CCCCCCN1CC(=O)N[C@@H](Cc2ccc(O)cc2)C(=O)N[C@@H](CCCCC)C(=O)N[C@@H](CC(N)=O)C(=O)N[C@@H](CCCNC(=N)N)C(=O)N(C)[C@@H](CCCC)C(=O)N[C@@H](CCCCC)C(=O)N2CCC[C@H]2C(=O)N[C@@H](C(C)C)C(=O)N[C@@H](CC(=O)O)C(=O)N[C@H](C(=O)NC(CO)C(=O)O)CSCC(=O)N[C@@H](Cc2ccc3ccccc3c2)C(=O)N[C@@H](Cc2ccc(F)cc2F)C(=O)N[C@@H](CC(=O)O)C1=O (stereo partly drawn) [compound 1202] ({CH2CO}-[2Nal][Phe(2,4-F2)]D[NHexGly]Y[Ahp(2)]NR[NMeNle][Ahp(2)]PVDC[ξS]-OH; thioether N-14)",7.79
15,CCCCCCN1CC(=O)N[C@@H](Cc2ccc(O)cc2)C(=O)N[C@@H](CC(C)C)C(=O)N[C@@H](CC(N)=O)C(=O)N[C@@H](CCCNC(=N)N)C(=O)N(C)[C@@H](CCCC)C(=O)N[C@@H](CCCCC)C(=O)N2CCC[C@H]2C(=O)N[C@@H](C(C)(C)C)C(=O)N[C@@H](CO)C(=O)N[C@H](C(=O)NCC(N)=O)CSCC(=O)N[C@@H](Cc2ccccc2)C(=O)N[C@@H](Cc2cccc(Br)c2)C(=O)N[C@@H](CC(=O)O)C1=O [compound 1203] ({CH2CO}-F[Phe(3-Br)]D[NHexGly]YLNR[NMeNle][Ahp(2)]P[Tle]SCG-NH2; thioether N-14),7.29
